Data taken from patent US12568972B2, “Pyridazinol compounds and derivatives, preparation methods, herbicidal compositions and applications thereof” (Qingdao Kingagroot Chemical Compound Co., Ltd., priority 2018, dated 2026).
Where two headings read alike, the source gives them in different places.

What was measured:
Format in all cases: in vivo
[1] = system: weeds; experiment: Control effect and synergistic effect of the mixture of (i) and (ii), postemergence (Gowing method)
Description: Wherein, in the formula, X represented the fresh weight inhibition rate of the active ingredient A in a dosage of P, and Y represented the fresh weight inhibition rate of the active ingredient B in a dosage of Q. The statistic results are shown in Table 6.

[2] = system: Veronica polita; experiment: Post-emergence test, weed control effect; details: after 3 weeks
Outline: (§1)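 Scores use a 0 (no effect) to 10 (dead) scale of fresh-weight inhibition, assessed 3 weeks after spraying. Treatment was at the 2-3 leaf stage, 2-3 weeks post-sowing, using acetone/Tween-80/water solutions with 80% vegetable oil methyl ester synergist at 1500 g/ha.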

[3] = system: Amaranthus retroflexus; experiment: Post-emergence test, weed control effect; details: after 3 weeks
Outline: as §1

[4] = system: Chenopodiaceae; experiment: Post-emergence test, weed control effect; details: after 3 weeks
Outline: as §1

[5] = system: Rorippa indica; experiment: Post-emergence test, weed control effect; details: after 3 weeks
Outline: as §1

[6] = Abutilon theophrasti, 50 g a.i./ha, postemergence, 20 days after treatment
[7] = Abutilon theophrasti, 2 g a.i./ha, postemergence, 20 days after treatment
[8] = Sisymbrium sophia, 200 g a.i./ha, postemergence, 20 days after treatment
[9] = Abutilon theophrasti, 15 g a.i./ha, postemergence, 20 days after treatment
[10] = Abutilon theophrasti, 5 g a.i./ha, postemergence, 20 days after treatment
[11] = post-emergence, 480 h, Abutilon theophrasti, 50 g a.i./ha, postemergence, 20 days after treatment, read-out: Inhibitory effect of component (ii) when applied alone at same dose
[12] = post-emergence, 480 h, Abutilon theophrasti, 30 g a.i./ha, postemergence, 20 days after treatment, read-out: Inhibitory effect of component (ii) when applied alone at same dose

Compound: CS(=O)(=O)c1ccc(C(=O)C2C(=O)CCCC2=O)c(Cl)c1OCCC1OCCO1 [Lancotrione]
- Inhibitory effect of component (ii) when applied alone at same dose [1, 6]: 40%

Compound: CCC(Oc1ccc(F)c(C(F)(F)F)c1)C(=O)NCc1ccccc1 (stereo not drawn) [Beflubutamid]
- Inhibitory effect of component (ii) when applied alone at same dose ([1]; Abutilon theophrasti, 200 g a.i./ha, postemergence, 20 days after treatment): 40%

Compound: COC(=O)c1nc(-c2ccc(Cl)c(OC)c2F)cc(N)c1Cl [Halauxifen-methyl]
- Inhibitory effect of component (ii) when applied alone at same dose [1, 7]: 40%

Compound: Fluridone
- Inhibitory effect of component (ii) when applied alone at same dose ([1]; Abutilon theophrasti, 100 g a.i./ha, postemergence, 20 days after treatment): 45%

Compound: O=C(Nc1ccc(F)cc1)c1cccc(Oc2cccc(C(F)(F)F)c2)n1 [Picolinafen]
- Inhibitory effect of component (ii) when applied alone at same dose [1, 6]: 30%

Compound: Cc1nn(C)cc1C(=O)Oc1c(C(=O)c2ccc(C(F)(F)F)cc2S(C)(=O)=O)c(C)nn1C [Shuangzuocaotong]
- Inhibitory effect of component (ii) when applied alone at same dose ([1]; Sisymbrium sophia, 5 g a.i./ha, postemergence, 20 days after treatment): 40%

Compound: Cc1cc(Cl)ccc1OCCCC(=O)O [MCPB]
- Inhibitory effect of component (ii) when applied alone at same dose [1, 8]: 40%

Compound: CC(Oc1ccc(Cl)cc1Cl)C(=O)O (stereo not drawn) [Dichlorprop]
- pest or weed control at 100 g/ha ([1]; Descurainia sophia, post-emergence, 480 h, Sisymbrium sophia, 100 g a.i./ha, postemergence, 20 days after treatment, read-out: Inhibitory effect of component (ii) when applied alone at same dose): 40%

Compound: O=C(O)c1nc(Cl)ccc1Cl [Clopyralid]
- pest or weed control at 50 g/ha ([1]; post-emergence, 480 h, Galinsoga parviflora, 50 g a.i./ha, postemergence, 20 days after treatment, read-out: Inhibitory effect of component (ii) when applied alone at same dose): 40%

Compound: Cc1nn(C)c(O)c1C(=O)c1ccc(C(F)(F)F)cc1S(C)(=O)=O [Pyrasulfotole]
- Inhibitory effect of component (ii) when applied alone at same dose [1, 9]: 50%

Compound: O=C1C(Cl)C(CCl)CN1c1cccc(C(F)(F)F)c1 (stereo not drawn) [Flurochloridone]
- pest or weed control at 100 g/ha ([1]; post-emergence, 480 h, Galium aparine, 100 g a.i./ha, postemergence, 20 days after treatment, read-out: Inhibitory effect of component (ii) when applied alone at same dose): 40%

Compound: O=C(O)c1c(Cl)ccc2cc(Cl)cnc12 [Quinclorac]
- pest or weed control at 50 g/ha ([1]; post-emergence, 480 h, Galium aparine, 50 g a.i./ha, postemergence, 20 days after treatment, read-out: Inhibitory effect of component (ii) when applied alone at same dose): 50%

Compound: Cc1ccc(C(=O)COc2c(C(=O)c3ccc(Cl)c(C)c3Cl)c(C)nn2C)cc1 [Benzofenap]
- pest or weed control at 150 g/ha ([1]; post-emergence, 480 h, Abutilon theophrasti, 150 g a.i./ha, postemergence, 20 days after treatment, read-out: Inhibitory effect of component (ii) when applied alone at same dose): 40%

Compound: CNc1cnn(-c2cccc(C(F)(F)F)c2)c(=O)c1Cl [Norflurazon]
- pest or weed control at 300 g/ha ([1]; post-emergence, 480 h, Abutilon theophrasti, 300 g a.i./ha, postemergence, 20 days after treatment, read-out: Inhibitory effect of component (ii) when applied alone at same dose): 50%

Compound: Cn1[nH]c(C2CC2)c(C(=O)c2ccc(C(F)(F)F)c(N3CCCCC3=O)c2Cl)c1=O [Huanbifucaotong]
- Inhibitory effect of component (ii) when applied alone at same dose ([1]; Abutilon theophrasti, 30 g a.i./ha, postemergence, 20 days after treatment): 30%

Compound: CS(=O)(=O)c1ccc(C(=O)C2C(=O)CCCC2=O)c(Cl)c1COCC(F)(F)F [Tembotrione]
- pest or weed control at 15 g/ha ([1]; post-emergence, 480 h, Abutilon theophrasti, 15 g a.i./ha, postemergence, 20 days after treatment, read-out: Inhibitory effect of component (ii) when applied alone at same dose): 30%

Compound: Nc1c(Cl)c(F)nc(OCC(=O)O)c1Cl [Fluroxypyr]
- pest or weed control at 30 g/ha ([1]; post-emergence, 480 h, Galium aparine, 30 g a.i./ha, postemergence, 20 days after treatment, read-out: Inhibitory effect of component (ii) when applied alone at same dose): 40%

Compound: CCn1ncc(C(=O)c2ccc(S(C)(=O)=O)c(COCC(F)(F)F)c2Cl)c1OC(=O)c1cn(C)nc1C [Benzuofucaotong]
- Inhibitory effect of component (ii) when applied alone at same dose [1, 9]: 40%

Compound: CS(=O)(=O)c1ccc(C(=O)C2C(=O)CCCC2=O)c(Cl)c1 [Sulcotrione]
- pest or weed control at 50 g/ha ([1]; Abutilon theophrasti, post-emergence, 480 h, read-out: Inhibitory effect of component (ii) when applied alone at same dose): 30%

Compound: CS(=O)(=O)c1ccc(C(=O)C2=C(Sc3ccccc3)C3CCC(C3)C2=O)c(Cl)c1 (stereo not drawn) [Benzobicyclon]
- Inhibitory effect of component (ii) when applied alone at same dose ([1]; Abutilon theophrasti, 150 g a.i./ha, postemergence, 20 days after treatment): 50%

Compound: Cc1c(C(=O)c2cnn(C)c2O)ccc(S(C)(=O)=O)c1C1=NOCC1 [Topramezone]
- Inhibitory effect of component (ii) when applied alone at same dose [1, 10]: 40%

Compound: O=C(O)COc1nc(Cl)c(Cl)cc1Cl [Triclopyr]
- pest or weed control at 50 g/ha [1, 11]: 35%

Compound: O=C(O)CCCOc1ccc(Cl)cc1Cl [2,4-DB]
- Inhibitory effect of component (ii) when applied alone at same dose [1, 8]: 50%

Compound: Nc1c(Cl)c(Cl)nc(C(=O)O)c1Cl [Picloram]
- pest or weed control at 50 g/ha [1, 11]: 40%

Compound: CS(=O)(=O)c1ccc(C(=O)C2C(=O)CCCC2=O)c([N+](=O)[O-])c1 [Mesotrione]
- pest or weed control at 30 g/ha [1, 12]: 40%

Compound: COc1c(Cl)ccc(-c2nc(C(=O)OCc3ccccc3)c(Cl)c(N)c2F)c1F [Florpyrauxifen-benzyl]
- Inhibitory effect of component (ii) when applied alone at same dose [1, 7]: 45%

Compound: CS(=O)(=O)c1cc(C(F)(F)F)ccc1C(=O)c1cnoc1C1CC1 [Isoxaflutole]
- pest or weed control at 30 g/ha [1, 12]: 30%

Compound: Cc1cc(Cl)ccc1OC(C)C(=O)O (stereo not drawn) [2-methyl 4-chlorophenoxypropionic acid]
- Inhibitory effect of component (ii) when applied alone at same dose ([1]; Sisymbrium sophia, 100 g a.i./ha, postemergence, 20 days after treatment): 30%

Compound: CNC1=C(c2cccc(C(F)(F)F)c2)C(=O)C(c2ccccc2)O1 (stereo not drawn) [Flurtamone]
- pest or weed control at 100 g/ha ([1]; Galium aparine, post-emergence, 480 h, read-out: Inhibitory effect of component (ii) when applied alone at same dose): 35%

Compound: O=C(O)COc1nc(Cl)c(Cl)cc1Cl [Trichlopyr]
- Inhibitory effect of component (ii) when applied alone at same dose [1, 6]: 40%

Compound: O=C(Nc1ccc(F)cc1F)c1cccnc1Oc1cccc(C(F)(F)F)c1 [Diflufenican]
- pest or weed control at 100 g/ha ([1]; post-emergence, 480 h, Veronica polita, 100 g a.i./ha, postemergence, 20 days after treatment, read-out: Inhibitory effect of component (ii) when applied alone at same dose): 45%

Compound: CC(C)CCCCCOC(=O)COc1ccc(Cl)cc1Cl [2,4-D iso-octyl ester]
- Inhibitory effect of component (ii) when applied alone at same dose ([1]; Sisymbrium sophia, 50 g a.i./ha, postemergence, 20 days after treatment): 40%

Compound: CS(=O)(=O)c1ccc(C(=O)C2C(=O)CCCC2=O)c(Cl)c1COCC1CCCO1 (stereo not drawn) [Tefuryltrione]
- Inhibitory effect of component (ii) when applied alone at same dose [1, 6]: 40%

Compound: Oc1cc(C(F)(F)F)nnc1-c1cncc(C2CC2)c1 [Compound 214]
- weed control effect (activity level), Veronica polita ([2]; dose 2000 g/ha): 10
- weed control effect (activity level), Amaranthus retroflexus ([3]; dose 2000 g/ha): 10
- weed control effect (activity level), Chenopodiaceae ([4]; dose 2000 g/ha): 10
- weed control effect (activity level), Rorippa indica ([5]; dose 2000 g/ha): 10

Compound: COc1ccc(-c2nnc(C(F)(F)F)cc2O)cc1[N+](=O)[O-] [Compound 768]
- weed control effect (activity level), Veronica polita ([2]; Dose 3000 g/ha): 10
- weed control effect (activity level), Amaranthus retroflexus ([3]; Dose 3000 g/ha): 10
- weed control effect (activity level), Chenopodiaceae ([4]; Dose 3000 g/ha): 10
- weed control effect (activity level), Rorippa indica ([5]; Dose 3000 g/ha): 10

Compound: Cn1nc(I)cc1-c1nnc(C(F)(F)F)cc1O [Compound 778]
- weed control effect (activity level), Veronica polita ([2]; Dose 3000 g/ha): 10
- weed control effect (activity level), Amaranthus retroflexus ([3]; Dose 3000 g/ha): 10
- weed control effect (activity level), Chenopodiaceae ([4]; Dose 3000 g/ha): 10
- weed control effect (activity level), Rorippa indica ([5]; Dose 3000 g/ha): 10

Compound: COc1cccc(-c2nnc(C(F)(F)F)cc2O)c1F [Compound 68]
- weed control effect (activity level), Veronica polita ([2]; dose 1000 g/ha): 10
- weed control effect (activity level), Amaranthus retroflexus ([3]; dose 1000 g/ha): 10
- weed control effect (activity level), Chenopodiaceae ([4]; dose 1000 g/ha): 10
- weed control effect (activity level), Rorippa indica ([5]; dose 1000 g/ha): 10

Compound: N#Cc1ccc(-c2nnc(C(F)(F)F)cc2O)s1 [Compound 873]
- weed control effect (activity level), Veronica polita ([2]; Dose 3000 g/ha): 10
- weed control effect (activity level), Amaranthus retroflexus ([3]; Dose 3000 g/ha): 10
- weed control effect (activity level), Chenopodiaceae ([4]; Dose 3000 g/ha): 10
- weed control effect (activity level), Rorippa indica ([5]; Dose 3000 g/ha): 10

Compound: O=C(Oc1cc(C(F)(F)F)nnc1-c1ccc(Cl)cc1)c1ccc2ccccc2n1 [Compound 1-116]
- weed control effect, Veronica polita (activity level) ([2]; Dose 3000 g/ha): 10
- weed control effect, Amaranthus retroflexus (activity level) ([3]; Dose 3000 g/ha): 10
- weed control effect, Chenopodiaceae (activity level) ([4]; Dose 3000 g/ha): 10
- weed control effect, Rorippa indica (activity level) ([5]; Dose 3000 g/ha): 10

Compound: CCn1ncc(C(=O)c2ccc(S(C)(=O)=O)c(OCCOC)c2C)c1OC(C)OC(=O)OC (stereo not drawn) [Tolpyralate]
- Inhibitory effect of component (ii) when applied alone at same dose [1, 10]: 50%

Compound: C#Cc1cc(OC2CC2)ncc1-c1nnc(C(F)(F)F)cc1O [Compound 231]
- weed control effect (activity level), Veronica polita ([2]; dose 2000 g/ha): 10
- weed control effect (activity level), Amaranthus retroflexus ([3]; dose 2000 g/ha): 10
- weed control effect (activity level), Chenopodiaceae ([4]; dose 2000 g/ha): 10
- weed control effect (activity level), Rorippa indica ([5]; dose 2000 g/ha): 10

Compound: CCSc1ccc(-c2nnc(C(F)(F)F)cc2O)cn1 [Compound 236]
- weed control effect (activity level), Veronica polita ([2]; dose 2000 g/ha): 10
- weed control effect (activity level), Amaranthus retroflexus ([3]; dose 2000 g/ha): 10
- weed control effect (activity level), Chenopodiaceae ([4]; dose 2000 g/ha): 10
- weed control effect (activity level), Rorippa indica ([5]; dose 2000 g/ha): 10

Compound: COc1c(Cl)ccc(Cl)c1C(=O)O [Dicamba]
- pest or weed control at 10 g/ha ([1]; Descurainia sophia, post-emergence, 480 h, Sisymbrium sophia, 10 g a.i./ha, postemergence, 20 days after treatment, read-out: Inhibitory effect of component (ii) when applied alone at same dose): 30%

Compound: Oc1cc(C(F)(F)F)nnc1-c1ccc(Br)cc1 [Compound 28]
- weed control effect (activity level), Veronica polita ([2]; dose 1000 g/ha): 10
- weed control effect (activity level), Amaranthus retroflexus ([3]; dose 1000 g/ha): 10
- weed control effect (activity level), Chenopodiaceae ([4]; dose 1000 g/ha): 10
- weed control effect (activity level), Rorippa indica ([5]; dose 1000 g/ha): 10

Compound: O=Cc1ccc(F)cc1-c1nnc(C(F)(F)F)cc1O [Compound 67]
- weed control effect (activity level), Veronica polita ([2]; dose 1000 g/ha): 10
- weed control effect (activity level), Amaranthus retroflexus ([3]; dose 1000 g/ha): 10
- weed control effect (activity level), Chenopodiaceae ([4]; dose 1000 g/ha): 10
- weed control effect (activity level), Rorippa indica ([5]; dose 1000 g/ha): 10
